Entries after “also recorded” stand apart in the source; their conditions may differ.
Experiments:
[1] = tested on: ischemic optic neuropathy in mice; assay: Mouse model of ischemic optic neuropathy, intravitreal injection; format: in vivo; conditions: intravitreal injections at days 1, 8 and 17 post injury; 4 weeks after induction
Text: FIG. 9. Rescue of RGC function and vision by intravitreal injection of IGF1R agonist in a mouse model of ischemic optic neuropathy. Quantifications of electroretinogram positive scotopic threshold response (pSTR) amplitudes, visual acuity and contrast sensitivity before (Baseline) and at 4 weeks (4 wks) after induction of ischemic optic neuropathy in mice received intravitreal injections of control or RG5 IGF1R agonist at day 1, 8 and 17 post injury. Error bar=SEM. *P<0.05 by one way ANOVA.
The adult mice were dark adapted in a dark adaptation chamber overnight before conducting ERG. […] The pSTR was measured from the baseline to the peak of the positive deflection. […]
The mouse was placed on a small platform in the middle of the optomotor chamber. […] The contrast at a given spatial frequency is calculated using the formula (Lmax−Lmin)/(Lmax+Lmin) where Lmax is the brightness (in cd/m^2) of the white stripe, and Lmin is the brightness of the black stripe (in cd/m^2). Contrast level, stripe width, grating speed, and direction of stripe movement (clockwise vs. counterclockwise) were measured. According to the tracking of head movements on the mouse to the moving stripes, the visual acuity and contrast sensitivity can be measured. […] By changing the stripe width and the contrast, visual acuity and contrast sensitivity of mice can be assessed. […]

[2] = tested on: human microglial cell line; assay: qPCR of IL-6 induction in LPS+ATP-stimulated human microglial cell line (IGF1R agonist / IGF1 antibody screen); format: cell-based; conditions: treatment 6 hours after LPS+ATP; compared with various IGF1 antibodies
Procedure: FIG. 8. Screening for anti-human IGF1 agonist antibody with a counter-inflammatory effect on microglial activation. Result of qPCR measuring levels of pro-inflammatory cytokine IL-6 induction in human microglial cell line that were stimulated by LPS and ATP (LPS+ATP) followed by treatment with IGF1R agonist Rg5 or various IGF1 antibodies 6 hours after LTP+ATP administration. […] Error bar=SEM. *P<0.05 by one way ANOVA.
qPCR was used to measure levels of pro-inflammatory cytokine IL-6 induction in a human microglial cell line stimulated by LPS and ATP (LPS+ATP) followed by treatment with IGF1R agonist Rg5 or various IGF1 antibodies 6 hours after LTP+ATP administration.

[3] = target: IGF-1R on mouse microglia (primary retinal and brain microglia, BV2 cell line) (mouse) (UniProt Q60751); assay: cell-based or functional assay
Chain of UniProt Q60751 (Q60751 31-1373): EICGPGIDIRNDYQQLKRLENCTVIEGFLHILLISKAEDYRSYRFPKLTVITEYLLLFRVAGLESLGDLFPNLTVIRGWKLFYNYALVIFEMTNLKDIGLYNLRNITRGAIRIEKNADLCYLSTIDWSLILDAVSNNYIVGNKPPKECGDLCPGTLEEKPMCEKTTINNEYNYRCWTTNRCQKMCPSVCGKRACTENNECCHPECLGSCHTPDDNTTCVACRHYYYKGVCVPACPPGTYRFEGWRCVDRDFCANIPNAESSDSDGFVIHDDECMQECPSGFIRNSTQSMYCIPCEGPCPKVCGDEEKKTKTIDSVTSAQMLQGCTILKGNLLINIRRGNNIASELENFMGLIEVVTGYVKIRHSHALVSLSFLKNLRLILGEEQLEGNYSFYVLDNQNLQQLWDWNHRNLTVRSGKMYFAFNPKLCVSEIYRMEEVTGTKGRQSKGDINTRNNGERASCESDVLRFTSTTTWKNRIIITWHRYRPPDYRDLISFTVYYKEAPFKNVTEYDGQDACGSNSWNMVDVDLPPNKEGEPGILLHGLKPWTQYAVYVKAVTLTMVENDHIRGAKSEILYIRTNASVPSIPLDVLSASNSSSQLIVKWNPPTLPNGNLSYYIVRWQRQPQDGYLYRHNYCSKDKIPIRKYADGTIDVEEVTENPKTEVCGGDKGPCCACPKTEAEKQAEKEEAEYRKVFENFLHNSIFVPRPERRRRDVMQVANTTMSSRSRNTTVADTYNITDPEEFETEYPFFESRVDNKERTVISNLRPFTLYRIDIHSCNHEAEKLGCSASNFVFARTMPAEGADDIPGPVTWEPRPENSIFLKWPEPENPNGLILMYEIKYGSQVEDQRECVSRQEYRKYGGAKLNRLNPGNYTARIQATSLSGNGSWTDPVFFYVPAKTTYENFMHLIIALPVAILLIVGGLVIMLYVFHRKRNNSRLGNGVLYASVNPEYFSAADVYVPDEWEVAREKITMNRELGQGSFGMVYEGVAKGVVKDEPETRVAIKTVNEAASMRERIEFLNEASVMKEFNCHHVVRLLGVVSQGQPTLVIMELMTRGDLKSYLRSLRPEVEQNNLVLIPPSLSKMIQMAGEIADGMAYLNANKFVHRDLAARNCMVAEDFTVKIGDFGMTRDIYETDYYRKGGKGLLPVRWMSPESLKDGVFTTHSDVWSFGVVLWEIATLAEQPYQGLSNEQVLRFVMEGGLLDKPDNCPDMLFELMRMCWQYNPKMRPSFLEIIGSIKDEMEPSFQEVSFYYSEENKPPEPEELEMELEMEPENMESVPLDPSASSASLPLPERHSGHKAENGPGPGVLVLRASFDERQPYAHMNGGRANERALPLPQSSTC

PI3K phosphorylation (Western blot, BV2 microglia) [3] | Compound | RGC function (pSTR amplitudes) and vision (visual acuity, contrast sensitivity) [1] | Anti-inflammatory effect on IL-6 induction (qPCR) [2]
– | CC(C)=CC/C=C(\C)[C@H]1CC[C@]2(C)[C@@H]1[C@H](O)C[C@@H]1[C@@]3(C)CC[C@H](O[C@@H]4O[C@H](CO)[C@@H](O)[C@H](O)[C@H]4O[C@@H]4O[C@H](CO)[C@@H](O)[C@H](O)[C@H]4O)C(C)(C)[C@@H]3CC[C@]12C [Rg5, ginsenoside RG5] | protects RGC function and vision against ischemic optic neuropathy-induced functional loss | largest anti-inflammatory effect; also recorded: greatest anti-inflammatory effect
8 fold | insulin-like growth factor binding protein like protein 1 (IGFBPL1), recombinant (R&D system, 4130-BL) (from UniProt Q80W15 18-270) (ligand) | – | –
